In patent publication US9845310B2 (priority 2015, dated 2017):

Test system: naive Sprague Dawley rat hearts
Details: ex vivo isolated perfused rat heart, percent change over vehicle; for Isolated Heart Assay dP/dtmax(%): contractility; for Isolated Heart Assay dP/dtmin(%): relaxation (lusitropic)

SMILES | Isolated Heart Assay dP/dtmax(%) | Isolated Heart Assay dP/dtmin(%)
CCO[C@H](c1ncc(Cl)cn1)[C@H](C)S(=O)(=O)Nc1nnc(-c2cccnc2)n1-c1c(OC)cccc1OC [Example 430.0, (1R,2S)-1-(5-chloropyrimidin-2-yl)-N-(4-(2,6-dimethoxyphenyl)-5-(pyridin-3-yl)-4H-1,2,4-triazol-3-yl)-1-ethoxypropane-2-sulfonamide] | 10.0% | 9.7%
COc1cccc(-c2nnc(NS(=O)(=O)[C@@H](C)[C@H](OC)c3ncc(C)cn3)n2-c2cccnc2OC)n1 (atropisomer, axis not shown) [Example 741.0, (1R,2S, P)-1-methoxy-N-(4-(2-methoxy-3-pyridinyl)-5-(6-methoxy-2-pyridinyl)-4H-1,2,4-triazol-3-yl)-1-(5-methyl-2-pyrimidinyl)-2-propanesulfonamide and (1R,2S, M)-1-methoxy-N-(4-(2-methoxy-3-pyridinyl)-5-(6-methoxy-2-pyridinyl)-4H-1,2,4-triazol-3-yl)-1-(5-methyl-2-pyrimidinyl)-2-propanesulfonamide] | 1.4% | 6.6%
CCO[C@H](c1ncc(C)cn1)[C@H](C)S(=O)(=O)Nc1nnc(-c2cncc(C)c2)n1-c1c(OC)cccc1OC [Example 252.0, (1R,2S)-N-(4-(2,6-dimethoxyphenyl)-5-(5-methylpyridin-3-yl)-4H-1,2,4-triazol-3-yl)-1-ethoxy-1-(5-methylpyrimidin-2-yl)propane-2-sulfonamide] | 15.7% | 16.3%
COc1cccc(OC)c1-n1c(NS(=O)(=O)CCc2ccc(F)cc2C#N)nnc1-c1cncc(C)c1 [Example 621.0, 2-(2-cyano-4-fluorophenyl)-N-(4-(2,6-dimethoxyphenyl)-5-(5-methyl-3-pyridinyl)-4H-1,2,4-triazol-3-yl)ethanesulfonamide] | 7.4% | 6.0%
COc1cccc(OC)c1-n1c(NS(=O)(=O)[C@@H](C)[C@H](C)c2ncc(F)cn2)nnc1-c1cccnc1 (racemic) [Example 184.0, (2R,3S)-N-(4-(2,6-dimethoxyphenyl)-5-(3-pyridinyl)-4H-1,2,4-triazol-3-yl)-3-(5-fluoro-2-pyrimidinyl)-2-butanesulfonamide or (2S,3R)-N-(4-(2,6-dimethoxyphenyl)-5-(3-pyridinyl)-4H-1,2,4-triazol-3-yl)-3-(5-fluoro-2-pyrimidinyl)-2-butanesulfonamide] | 14.5% | 14.0%
Cc1cnc([C@@H](C)[C@H](C)S(=O)(=O)Nc2nnc(-c3cncc(C)c3)n2-c2c(F)cccc2F)nc1 (single isomer, unassigned) [Example 826.0, (2S,3R)-N-(4-(2,6-difluorophenyl)-5-(5-methylpyridin-3-yl)-4H-1,2,4-triazol-3-yl)-3-(5-methylpyrimidin-2-yl)butane-2-sulfonamide or (2R,3S)-N-(4-(2,6-difluorophenyl)-5-(5-methylpyridin-3-yl)-4H-1,2,4-triazol-3-yl)-3-(5-methylpyrimidin-2-yl)butane-2-sulfonamide] | 6.02% | 5.16%
COc1cnc([C@H](O)[C@@H](C)S(=O)(=O)Nc2nnc(-c3cccnc3)n2-c2c(OC)cccc2OC)cn1 (single isomer, unassigned) [Example 706.0, (1S,2R)-N-(4-(2,6-dimethoxyphenyl)-5-(3-pyridinyl)-4H-1,2,4-triazol-3-yl)-1-hydroxy-1-(5-methoxy-2-pyrazinyl)-2-propanesulfonamide or (1R,2S)-N-(4-(2,6-dimethoxyphenyl)-5-(3-pyridinyl)-4H-1,2,4-triazol-3-yl)-1-hydroxy-1-(5-methoxy-2-pyrazinyl)-2-propanesulfonamide] | 9.1% | 4.0%
CCO[C@H](c1ncc(F)cn1)[C@H](C)S(=O)(=O)Nc1nnc(-c2cccnc2)n1-c1c(OC)cccc1OC [Example 51.0, (1R,2S)-N-(4-(2,6-dimethoxyphenyl)-5-(3-pyidinyl)-4H-1,2,4-triazol-3-yl)-1-ethoxy-1-(5-fluoro-2-pyrimidinyl)-2-propanesulfonamide] | 2.0% | 2.0%
COc1cccc(-c2nnc(NS(=O)(=O)[C@@H](C)[C@H](C)c3ncc(C)cn3)n2-c2c(F)cccc2F)n1 [Example 784.0, (2S,3R)-N-(4-(2,6-difluorophenyl)-5-(6-methoxy-2-pyridinyl)-4H-1,2,4-triazol-3-yl)-3-(5-methyl-2-pyrimidinyl)-2-butanesulfonamide] | 4.3% | 1.93%
COc1cccc(OC)c1-n1c(NS(=O)(=O)[C@@H](C)[C@H](O)c2ncc(F)cn2)nnc1-c1cccnc1 [Example 82.0, (1R,2S)-N-(4-(2,6-dimethoxyphenyl)-5-(3-pyridinyl)-4H-1,2,4-triazol-3-yl)-1-(5-fluoro-2-pyrimidinyl)-1-hydroxy-2-propanesulfonamide] | 13.5% | 16.2%
COc1cccc(OC)c1-n1c(NS(=O)(=O)[C@H](C)[C@@H](O)c2cnc(C)cn2)nnc1-c1cccnc1 [Example 614.0, (1S,2R)-N-(4-(2,6-dimethoxyphenyl)-5-(3-pyridinyl)-4H-1,2,4-triazol-3-yl)-1-hydroxy-1-(5-methyl-2-pyrazinyl)-2-propanesulfonamide] | 6.6% | 6.2%
COc1cccc(OC)c1-n1c(NS(=O)(=O)[C@@H](C)[C@@H](OC(C)C)c2ncc(C)cn2)nnc1-c1cccnc1 (stereo in doubt) [Example 627.0, (1R,2R)-N-(4-(2,6-dimethoxyphenyl)-5-(3-pyridinyl)-4H-1,2,4-triazol-3-yl)-1-(1-methylethoxy)-1-(5-methyl-2-pyrimidinyl)-2-propanesulfonamide, (1S,2S)-N-(4-(2,6-dimethoxyphenyl)-5-(3-pyridinyl)-4H-1,2,4-triazol-3-yl)-1-(1-methylethoxy)-1-(5-methyl-2-pyrimidinyl)-2-propanesulfonamide] | No effect | No effect
COc1cccc(OC)c1-n1c(NS(=O)(=O)[C@H](C)[C@@H](O)c2cnc(C)cn2)nnc1-c1cncc(C)c1 (single isomer, unassigned) [Example 569.0, (1S,2R)-N-(4-(2,6-dimethoxyphenyl)-5-(5-methyl-3-pyridinyl)-4H-1,2,4-triazol-3-yl)-1-hydroxy-1-(5-methyl-2-pyrazinyl)-2-propanesulfonamide or (1R,2S)-N-(4-(2,6-dimethoxyphenyl)-5-(5-methyl-3-pyridinyl)-4H-1,2,4-triazol-3-yl)-1-hydroxy-1-(5-methyl-2-pyrazinyl)-2-propanesulfonamide] | 12.4% | 12.7%
CCO[C@H](c1ncc(F)cn1)[C@H](C)S(=O)(=O)Nc1nnc(-c2cncc(C)c2)n1-c1c(OC)cccc1OC [Example 79.0, (1R,2S)-N-(4-(2,6-dimethoxyphenyl)-5-(5-methyl-3-pyridinyl)-4H-1,2,4-triazol-3-yl)-1-ethoxy-1-(5-fluoro-2-pyrimidinyl)-2-propanesulfonamide] | 10.0% | 5.0%
COc1cnc([C@@H](C)[C@H](C)S(=O)(=O)Nc2nnc(-c3cccnc3)n2-c2c(OC)ncnc2OC)cn1 [Example 803.0, (2S,3R)-N-(4-(4,6-dimethoxy-5-pyrimidinyl)-5-(3-pyridinyl)-4H-1,2,4-triazol-3-yl)-3-(5-methoxy-2-pyrazinyl)-2-butanesulfonamide] | 11.4% | 10.0%
COc1cccc(OC)c1-n1c(NS(=O)(=O)[C@@H](C)[C@H](OC)c2ncc(F)cn2)nnc1-c1cncc(C)c1 [Example 80.0, (1R,2S)-N-(4-(2,6-dimethoxyphenyl)-5-(5-methyl-3-pyridinyl)-4H-1,2,4-triazol-3-yl)-1-(5-fluoro-2-pyrimidinyl)-1-methoxy-2-propanesulfonamide] | 5.0% | −2.7%
COc1ncnc(OC)c1-n1c(NS(=O)(=O)[C@@H](C)[C@H](OC)c2ccc(Cl)cn2)nnc1-c1cccnc1 (single isomer, unassigned) [Example 711.0, (1R,2S)-1-(5-chloro-2-pyridinyl)-N-(4-(4,6-dimethoxy-5-pyrimidinyl)-5-(3-pyridinyl)-4H-1,2,4-triazol-3-yl)-1-methoxy-2-propanesulfonamide or (1S,2R)-1-(5-chloro-2-pyridinyl)-N-(4-(4,6-dimethoxy-5-pyrimidinyl)-5-(3-pyridinyl)-4H-1,2,4-triazol-3-yl)-1-methoxy-2-propanesulfonamide] | 9.4% | 1.1%
COc1cccc(OC)c1-n1c(NS(=O)(=O)[C@H](C)[C@@H](OC)c2ccc(Cl)cn2)nnc1-c1cccnc1 (single isomer, unassigned) [Example 531.0, (1S,2R)-1-(5-chloro-2-pyridinyl)-N-(4-(2,6-dimethoxyphenyl)-5-(3-pyridinyl)-4H-1,2,4-triazol-3-yl)-1-methoxy-2-propanesulfonamide or (1R,2S)-1-(5-chloro-2-pyridinyl)-N-(4-(2,6-dimethoxyphenyl)-5-(3-pyridinyl)-4H-1,2,4-triazol-3-yl)-1-methoxy-2-propanesulfonamide] | 4.1% | 1.9%
COc1cccc(-c2nnc(NS(=O)(=O)[C@@H](C)[C@H](C)c3cnc(C)cn3)n2-c2c(OC)ncnc2OC)n1 [Example 799.0, (2S,3R)-N-(4-(4,6-dimethoxy-5-pyrimidinyl)-5-(6-methoxy-2-pyridinyl)-4H-1,2,4-triazol-3-yl)-3-(5-methyl-2-pyrazinyl)-2-butanesulfonamide] | 7.8% | 14.1%
